Measurements: patent US10576102B2, “KOC1-derived peptide and vaccine including same” (ONCOTHERAPY SCIENCE, INC., priority 2014, dated 2020)
Entries after “also recorded” stand apart in the source; their conditions may differ.

Assays:
Assay type in all cases: cell-based, human
[1] = system: peptide-pulsed C1R-A11; test: In vitro CTL induction, IFN-gamma ELISPOT assay (HLA-A*1101); settings: CTLs induced with peptide-pulsed DCs from HLA-A*1101-positive volunteers; day 21; vs peptide-pulsed C1R-A11, compared with unpulsed control
Procedure: (§1) C1R (C1R-A11) that stably expresses HLA-A*1101 was used as a stimulator cell. A cDNA encoding the open-reading frame of HLA-A*1101 was amplified by PCR and cloned into an expression vector. C1R cells were transfected with the expression vector, and then selected using G418 (Invitrogen) for two weeks. The G418-selected cells were seeded into wells containing G418-added culture medium in a 96-well plate, and further cultured for 30 days. The exogenous HLA-A*1101 expression in C1R cells was verified by flow cytometric analysis.
(§2) Monocyte-derived dendritic cells (DCs) were used as the antigen-presenting cell to induce a cytotoxic T lymphocyte (CTL) response against peptides presented on human leukocyte antigens (HLAs). As described in the other sections, DCs were generated in vitro (Nakahara S et al., Cancer Res 2003, 63(14): 4112-8). Specifically, peripheral-blood mononuclear cells isolated from healthy volunteers (HLA-A*1101-positive) with the Ficoll-Paque plus solution (Pharmacia) were separated by attaching to plastic tissue culture dishes (Becton Dickinson) and concentrated as a monocyte fraction. The monocyte-concentrated population was cultured in the presence of 1000 IU/ml granulocyte macrophage colony-stimulating factor (R&D System) and 1000 IU/ml interleukin(IL)-4 (R&D System) in an AIM-V medium (Invitrogen) containing 2% heat-inactivated autologous serum (AS). After seven days of culturing, the cytokine-induced DCs were pulsed with 20 micro-g/ml each of the synthesized peptides in an AIM-V medium at 37 degrees C. for three hours in the presence of 3 micro-g/ml beta 2-microglobulin. The generated cells appeared to express on their cell surface DC-associated molecules such as CD80, CD83, CD86 and HLA class II (data not shown). Next, these peptide-pulsed DCs were inactivated, by X-ray irradiation (20 Gy), and mixed in a 1:20 ratio with autologous CD8^+ T cells obtained by positive selection using the CD8 Positive Isolation Kit (Dynal). These culture products were seeded in a 48-well plate (Corning). Each well was made to contain 1.5×10^4 peptide-pulsed DCs, 3×10^5 CD8^+ T cells and 10 ng/ml IL-7 (R&D System) in 0.5 ml of the AIM-V/2% AS medium. Three days later, these culture products were added with a final concentration of 20 IU/ml IL-2 (CHIRON). On day 7 and day 14, T cells were further stimulated with peptide-pulsed autologous DCs. The DCs were prepared every time by the same method as above. On day 21, after the third peptide stimulation, CTLs were examined against the peptide-pulsed C1R-A11 by a human interferon (IFN)-gamma enzyme-linked immunospot (ELISPOT) assay (Tanaka H et al., Br J Cancer 2001, 84(1): 94-9; Umano Y et al., Br J Cancer 2001, 84(8): 1052-7; Uchida N et al., Clin Cancer Res 2004, 10(24): 8577-86; Suda T et al., Cancer Sci 2006, 97(5): 411-9; Watanabe T et al., Cancer Sci 2005, 96(8): 498-506).
(§3) Specifically, peptide-pulsed C1R-A11 (1×10^4 cells/well) was prepared as the stimulator cell. The induced CTLs, i.e., CTL lines and CTL clones, were used as the responder cell. The IFN-gamma ELISPOT assay and IFN-gamma ELISA were performed according to the manufacturer's manual.

[2] = system: peptide-pulsed C1R-A03; test: In vitro CTL induction, IFN-gamma ELISPOT assay (HLA-A*0301); settings: CTLs induced with peptide-pulsed DCs from HLA-A*0301-positive volunteers; day 21; vs peptide-pulsed C1R-A03, compared with unpulsed control; listed as KOC1-A03-10-414
Procedure: as §1, with “(C1R-A03)” for “(C1R-A11)”, “HLA-A*0301” for “HLA-A*1101”
as §2, with “(HLA-A*0301-positive)” for “(HLA-A*1101-positive)”, “inactivated” for “inactivated,”, “On day 21, after the third peptide stimulation, CTLs were examined against the peptide-pulsed C1R-A11 by a human interferon (IFN)-gamma enzyme-linked immunospot (ELISPOT) assay (Tanaka H et al., Br J Cancer 2001, 84(1): 94-9; Umano Y et al., Br J Cancer 2001, 84(8): 1052-7; Uchida N et al., Clin Cancer Res 2004, 10(24): 8577-86; Suda T et al., Cancer Sci 2006, 97(5): 411-9; Watanabe T et al., Cancer Sci 2005, 96(8): 498-506).” left out

[3] = system: peptide-pulsed C1R-A11; test: IFN-gamma ELISA of CTL lines and CTL clones (HLA-A*1101)
Procedure: CTLs were propagated in culture using methods similar to those disclosed by Riddell et al. (Walter E A et al., N Engl J Med 1995, 333(16): 1038-44; Riddell S R et al., Nat Med 1996, 2(2): 216-23). The CTLs were co-cultured in a total of 25 ml AIM-V medium containing 5% AS (AIM-V/5% AS) and 40 ng/ml anti-CD3 antibody with two types of Mitomycin C-treated human B lymphoblastoid cell lines at 5×10^6 cells/flask. One day after beginning of the culturing, 120 IU/ml IL-2 was added to the culture. On days 5, 8 and 11, a fresh AIM-V/5% AS medium containing 30 IU/ml IL-2 was added to the culture (Tanaka H et al., Br J Cancer 2001, 84(1): 94-9; Umano Y et al., Br J Cancer 2001, 84(8): 1052-7; Uchida N et al., Clin Cancer Res 2004, 10(24): 8577-86; Suda T et al., Cancer Sci 2006, 97(5): 411-9; Watanabe T et al., Cancer Sci 2005, 96(8): 498-506).
Dilution of CTLs was carried out to make 0.3, 1 and 3 cells/well in 96 round-bottomed microtiter plates (Nalge Nunc International). The CTLs were co-cultured with two types of Mitomycin C-treated human B lymphoblastoid cell lines at 1×10^4 cells/well in a total of 150 micro-1/well AIM-V/5% AS medium with 30 ng/ml anti-CD3 antibody and 125 IU/ml IL-2. Ten days later, IL-2 was added to the medium at 50 micro-1/well to reach a final concentration of 125 IU/ml. On day 14, the CTL activity was tested, and the CTL clones were propagated using the same method as described above (Uchida N et al., Clin Cancer Res 2004, 10(24): 8577-86; Suda T et al., Cancer Sci 2006, 97(5): 411-9; Watanabe T et al., Cancer Sci 2005, 96(8): 498-506).
as §3

| Sequence | peptide-specific CTL activity (IFN-gamma production), ELISPOT [1] | peptide-specific CTL activity (IFN-gamma production), ELISPOT [2] | IFN-gamma production of CTL clones, ELISA ([3]; CTL clones by limiting dilution, peptide-pulsed C1R-A11, listed as KOC1-A11-9-415) | IFN-gamma production of CTL lines, ELISA ([3]; CTL lines, target cells pulsed with the peptide vs not pulsed, C1R-A11) |
| --- | --- | --- | --- | --- |
| ALSVGAIIGK (a peptide derived from KOC1) [SEQ ID NO: 28] | potent IFN-gamma production | no specific IFN-gamma production; also recorded: specific IFN-gamma production was not observed |  |  |
| LSVGAIIGK (a peptide derived from KOC1) [SEQ ID NO: 5] | potent IFN-gamma production |  | Potent IFN-gamma production | potent IFN-gamma production |
